Data: patent US8568745B2, “Water-soluble drug carrier and process for producing the same” (Kyushu University, National University Corporation, priority 2009, dated 2013)

Experiment: Dispersibility of FITC-DEX-encapsulated S/W with additives
Assay type: physicochemical
Conditions: additive 125 mg/mL in aqueous phase of S/O/W emulsion
Protocol: In order to reduce the particle size in S/W, the additives presented in Table 1 were added to the aqueous phase of the S/O/W emulsion during the preparation of S/W, and the dispersibility of each sample was observed.
(2) Cyclohexane (3.0 mL) was added to (1) to obtain an FITC-DEX-encapsulated S/O.
(3) A PC-ER-290-FITC-DEX complex solid was obtained by freeze drying the S/O/W emulsion prepared by agitating the solution of (2) (0.50 mL), and 5.0 mL of an aqueous solution (containing 2.5 mg/mL PC, and each additive at a concentration of 125 mg/mL) in a 12-mL vial container using a homogenizer.
(4) A 0.1 TE buffer (5.0 mL) was added to (3) to obtain an FITC-DEX-encapsulated S/W.

Dispersibility / particle size of FITC-DEX-encapsulated S/W with additive, relatively small particle sizes:
OCC(O)CO [Glycerine]
OC[C@@H](O)[C@@H](O)[C@H](O)[C@@H](O)CO [sorbitol]
OC[C@H]1O[C@H](O[C@H]2O[C@H](CO)[C@@H](O)[C@H](O)[C@H]2O)[C@H](O)[C@@H](O)[C@@H]1O [trehalose]
